PMC3082038 (Cancer Chemotherapy and Pharmacology, 2010)
Marks after values point to notes of the source that are not given here.

Experiment: Plasma pharmacokinetics of TSU-68 in phase I patients
Assay type: in vivo, human
Details: for AUC(0-t) / AUC / Cmax / half-life / Tmax: human, plasma, oral

Cc1[nH]c(/C=C2\C(=O)Nc3ccccc32)c(C)c1CCC(=O)O [TSU-68, (Z)-5-[(1,2-dihydro-2-oxo-3H-indol-3-ylidene)methyl]-2,4-dimethyl-1H-pyrrole-3-propanoic acid]
AUC0–t (b.i.d. after meal, 1st dose, 400 mg/m^2, n=6, mean ± SD): 76.44 ± 23.07 h
AUC0–t (b.i.d. after meal, 3rd dose, 200 mg/m^2, n=3, mean ± SD): 33.28 ± 4.329 h
AUC0–t (b.i.d. after meal, 3rd dose, 500 mg/m^2, n=3, mean ± SD): 45.74 ± 14.59 h
C max and AUC after repeated administration versus 1st administration on day 1 (b.i.d. regimen, any dose level, days 2 and 28): approximately twofold lower
AUC(0-t) (200 mg/m2, AUC0–t, b.i.d. after meal, 1st dose, 200 mg/m^2, n=3, mean ± SD): 55200 ± 5360 ng·h/mL
AUC(0-t) (200 mg/m2, AUC0–t, b.i.d. after meal, 56th dose, 200 mg/m^2, n=3, mean ± SD): 32200 ± 1540 ng·h/mL
AUC(0-t) (200 mg/m2, AUC0–t, t.i.d. after meal, 1st dose, 200 mg/m^2, n=6, mean ± SD): 37000 ± 18200 ng·h/mL
AUC(0-t) (200 mg/m2, AUC0–t, t.i.d. after meal, 2nd dose, 200 mg/m^2, n=6, mean ± SD): 31500 ± 12500 ng·h/mL
AUC (200 mg/m2, AUC Day 28, Pt 1, Cervical ca., b.i.d. 200 mg/m^2 (800 mg/day)): 32800 ng·h/mL
AUC (200 mg/m2, AUC Day 28, Pt 2, NSCLC, b.i.d. 200 mg/m^2 (800 mg/day)): 33400 ng·h/mL
AUC (200 mg/m2, AUC Day 28, Pt 13, Colon ca., t.i.d. 200 mg/m^2 (1200 mg/day)): 25300 ng·h/mL
AUC (200 mg/m2, AUC Day 28, Pt 14, Soft tissue sa., t.i.d. 200 mg/m^2 (600 mg/day)): 19000 ng·h/mL
Cmax (200 mg/m2, C max, b.i.d. after meal, 1st dose, 200 mg/m^2, n=3, mean ± SD): 11200 ± 1150 ng/mL
Cmax (200 mg/m2, C max, b.i.d. after meal, 3rd dose, 200 mg/m^2, n=3, mean ± SD): 6000 ± 671 ng/mL
Cmax (200 mg/m2, C max, b.i.d. after meal, 56th dose, 200 mg/m^2, n=3, mean ± SD): 4790 ± 526 ng/mL
Cmax (200 mg/m2, C max, t.i.d. after meal, 1st dose, 200 mg/m^2, n=6, mean ± SD): 11000 ± 5530 ng/mL
Cmax (200 mg/m2, C max, t.i.d. after meal, 2nd dose, 200 mg/m^2, n=6, mean ± SD): 7010 ± 2410 ng/mL
Cmax (200 mg/m2, C max, t.i.d. after meal, 84th dose, 200 mg/m^2, n=6, mean ± SD): 3850 ± 2980 ng/mL
half-life (200 mg/m2, T 1/2, b.i.d. after meal, 1st dose, 200 mg/m^2, n=3, mean ± SD): 2.37 ± 0.86 h
half-life (200 mg/m2, T 1/2, b.i.d. after meal, 3rd dose, 200 mg/m^2, n=3, mean ± SD): 2.71 ± 0.471 h
half-life (200 mg/m2, T 1/2, b.i.d. after meal, 56th dose, 200 mg/m^2, N = 2, mean): 3.47 h
half-life (200 mg/m2, T 1/2, t.i.d. after meal, 1st dose, 200 mg/m^2, N = 3, mean ± SD): 2.04 ± 0.461 h
half-life (200 mg/m2, T 1/2, t.i.d. after meal, 2nd dose, 200 mg/m^2, N = 2, mean): 2.99 h
Tmax (200 mg/m2, T max, b.i.d. after meal, 1st dose, 200 mg/m^2, n=3, mean ± SD): 3 ± 1 h
Tmax (200 mg/m2, T max, b.i.d. after meal, 3rd dose, 200 mg/m^2, n=3, mean ± SD): 3.5 ± 2.29 h
Tmax (200 mg/m2, T max, b.i.d. after meal, 56th dose, 200 mg/m^2, n=3, mean ± SD): 2.67 ± 1.16 h
Tmax (200 mg/m2, T max, t.i.d. after meal, 1st dose, 200 mg/m^2, n=6, mean ± SD): 3.08 ± 1.43 h
Tmax (200 mg/m2, T max, t.i.d. after meal, 2nd dose, 200 mg/m^2, n=6, mean ± SD): 3.67 ± 1.37 h
Tmax (200 mg/m2, T max, t.i.d. after meal, 84th dose, 200 mg/m^2, n=6, mean ± SD): 2 ± 1.05 h
AUC (200 mg/m^2 t.i.d., AUC Day 28, Pt 18, Colon ca., t.i.d. 200 mg/m^2 (1,200 mg/day)): 12500 ng·h/mL
AUC(0-t) (400 mg/m2, AUC0–t, b.i.d. after meal, 3rd dose, 400 mg/m^2, n=6, mean ± SD): 40400 ± 10600 ng·h/mL
AUC(0-t) (400 mg/m2, AUC0–t, b.i.d. after meal, 56th dose, 400 mg/m^2, N = 4, mean ± SD): 36900 ± 20300 ng·h/mL
AUC(0-t) (400 mg/m2, AUC0–t, t.i.d. after meal, 1st dose, 400 mg/m^2, n=6, mean ± SD): 41600 ± 21600 ng·h/mL
AUC(0-t) (400 mg/m2, AUC0–t, t.i.d. after meal, 2nd dose, 400 mg/m^2, n=6, mean ± SD): 42000 ± 18900 ng·h/mL
AUC(0-t) (400 mg/m2, AUC0–t, t.i.d. after meal, 84th dose, 400 mg/m^2, n=6, mean ± SD): 31600 ± 16100 ng·h/mL
Cmax (400 mg/m2, C max, b.i.d. after meal, 1st dose, 400 mg/m^2, n=6, mean ± SD): 17100 ± 6590 ng/mL
Cmax (400 mg/m2, C max, b.i.d. after meal, 3rd dose, 400 mg/m^2, n=6, mean ± SD): 8290 ± 2720 ng/mL
Cmax (400 mg/m2, C max, b.i.d. after meal, 56th dose, 400 mg/m^2, N = 4, mean ± SD): 8410 ± 5870 ng/mL
Cmax (400 mg/m2, C max, t.i.d. after meal, 1st dose, 400 mg/m^2, n=6, mean ± SD): 12400 ± 5760 ng/mL
Cmax (400 mg/m2, C max, t.i.d. after meal, 2nd dose, 400 mg/m^2, n=6, mean ± SD): 9340 ± 4510 ng/mL
Cmax (400 mg/m2, C max, t.i.d. after meal, 84th dose, 400 mg/m^2, n=6, mean ± SD): 4780 ± 1950 ng/mL
half-life (400 mg/m2, T 1/2, b.i.d. after meal, 1st dose, 400 mg/m^2, n=6, mean ± SD): 2.94 ± 0.692 h
half-life (400 mg/m2, T 1/2, b.i.d. after meal, 3rd dose, 400 mg/m^2, n=6, mean ± SD): 3.45 ± 1.37 h
half-life (400 mg/m2, T 1/2, b.i.d. after meal, 56th dose, 400 mg/m^2 (6), mean ± SD): 2.6 ± 0.527 h
half-life (400 mg/m2, T 1/2, t.i.d. after meal, 1st dose, 400 mg/m^2, N = 1): 2.61 h
half-life (400 mg/m2, T 1/2, t.i.d. after meal, 2nd dose, 400 mg/m^2, N = 3, mean ± SD): 2.41 ± 1.14 h
half-life (400 mg/m2, T 1/2, t.i.d. after meal, 84th dose, 400 mg/m^2, N = 2, mean): 2.23 h
Tmax (400 mg/m2, T max, b.i.d. after meal, 1st dose, 400 mg/m^2, n=6, mean ± SD): 2.67 ± 0.817 h
Tmax (400 mg/m2, T max, b.i.d. after meal, 3rd dose, 400 mg/m^2, n=6, mean ± SD): 2.67 ± 0.817 h
Tmax (400 mg/m2, T max, b.i.d. after meal, 56th dose, 400 mg/m^2, N = 4, mean ± SD): 2.38 ± 0.75 h
Tmax (400 mg/m2, T max, t.i.d. after meal, 1st dose, 400 mg/m^2, n=6, mean ± SD): 3.42 ± 1.2 h
Tmax (400 mg/m2, T max, t.i.d. after meal, 2nd dose, 400 mg/m^2, n=6, mean ± SD): 3 ± 1.79 h
Tmax (400 mg/m2, T max, t.i.d. after meal, 84th dose, 400 mg/m^2, n=6, mean ± SD): 2.92 ± 1.2 h
AUC (400 mg/m^2 t.i.d., AUC Day 28, Pt 20, Colon ca., t.i.d. 400 mg/m^2 (1,800 mg/day)): 46800 ng·h/mL
AUC(0-t) (500 mg/m2, AUC0–t, b.i.d. after meal, 1st dose, 500 mg/m^2, n=3, mean ± SD): 103000 ± 45600 ng·h/mL
AUC(0-t) (500 mg/m2, AUC0–t, b.i.d. after meal, 56th dose, 500 mg/m^2, n=3, mean ± SD): 43200 ± 18700 ng·h/mL
Cmax (500 mg/m2, C max, b.i.d. after meal, 1st dose, 500 mg/m^2, n=3, mean ± SD): 22500 ± 10000 ng/mL
Cmax (500 mg/m2, C max, b.i.d. after meal, 3rd dose, 500 mg/m^2, n=3, mean ± SD): 8790 ± 2920 ng/mL
Cmax (500 mg/m2, C max, b.i.d. after meal, 56th dose, 500 mg/m^2, n=3, mean ± SD): 7510 ± 3460 ng/mL
half-life (500 mg/m2, T 1/2, b.i.d. after meal, 1st dose, 500 mg/m^2, n=3, mean ± SD): 2.35 ± 0.599 h
half-life (500 mg/m2, T 1/2, b.i.d. after meal, 3rd dose, 500 mg/m^2, n=3, mean ± SD): 3.33 ± 1.16 h
half-life (500 mg/m2, T 1/2, b.i.d. after meal, 56th dose, 500 mg/m^2, N = 1): 1.82 h
Tmax (500 mg/m2, T max, b.i.d. after meal, 1st dose, 500 mg/m^2, n=3, mean ± SD): 4 ± 1.73 h
Tmax (500 mg/m2, T max, b.i.d. after meal, 3rd dose, 500 mg/m^2, n=3, mean ± SD): 4.33 ± 1.53 h
Tmax (500 mg/m2, T max, b.i.d. after meal, 56th dose, 500 mg/m^2, n=3, mean ± SD): 3.17 ± 1.44 h
AUC (500 mg/m^2 b.i.d., AUC Day 28, Pt 11, Colon ca., b.i.d. 500 mg/m^2 (1,600 mg/day)): 44600 ng·h/mL
T 1/2 (t.i.d. after meal, 84th dose, 200 mg/m^2, N = 5, mean ± SD): 4.773 ± 2.221^e h
AUC0–t (t.i.d. after meal, 84th dose, 200 mg/m^2, n=6, mean ± SD): 24.75 ± 13.69 h
